pIC50, pKi: −log10 of the molar value. Active and inactive are the calls of the source. No cut-off for these calls is given here.
Legend:
[1] = Inhibition of Saccharomyces cerevisiae alpha-glucosidase using 4-nitrophenyl alpha-D-glucopyranoside as substrate preincubated for 5 mins followed by substrate addition measured after 10 mins
Saccharomyces cerevisiae [2] = experiment: Inhibition of Saccharomyces cerevisiae alpha-glucosidase using 4-nitrophenyl alpha-D-glucopyranoside as substrate at 300 uM preincubated for 5 mins followed by substrate addition measured after 10 mins
Saccharomyces cerevisiae [3] = experiment: Inhibition of Saccharomyces cerevisiae alpha-glucosidase using 4-nitrophenyl alpha-D-glucopyranoside as substrate at 150 uM preincubated for 5 mins followed by substrate addition measured after 10 mins
[4] = Mixed inhibition of Saccharomyces cerevisiae alpha-glucosidase assessed as enzyme inhibitor substrate constant up to 12.5 uM using 4-nitrophenyl alpha-D-glucopyranoside as substrate after 2 mins by Lineweaver-Burk plot analysis
Saccharomyces cerevisiae [5] = experiment: Mixed inhibition of Saccharomyces cerevisiae alpha-glucosidase assessed as free-enzyme inhibition constant up to 12.5 uM using 4-nitrophenyl alpha-D-glucopyranoside as substrate after 2 mins by Lineweaver-Burk plot analysis
Saccharomyces cerevisiae [6] = experiment: Mixed inhibition of Saccharomyces cerevisiae alpha-glucosidase assessed as Vmax for substrate up to 10 uM in presence of varying concentrations of 4-nitrophenyl alpha-D-glucopyranoside after 2 mins by Lineweaver-Burk plot analysis (reference value: 23.8 nmol/min/ml)
Saccharomyces cerevisiae [7] = experiment: Potency index, ratio of 1-deoxynojirimycin IC50 to compound IC50 for Saccharomyces cerevisiae alpha-glucosidase
Saccharomyces cerevisiae [8] = experiment: Reversible inhibition of Saccharomyces cerevisiae alpha-glucosidase up to 15 uM using 4-nitrophenyl alpha-D-glucopyranoside as substrate after 2 mins by Lineweaver-Burk plot analysis
Saccharomyces cerevisiae [9] = experiment: Mixed inhibition of Saccharomyces cerevisiae alpha-glucosidase assessed as Km for substrate up to 10 uM in presence of varying concentrations of 4-nitrophenyl alpha-D-glucopyranoside after 2 mins by Lineweaver-Burk plot analysis (reference value: 0.092 mM)

SMILES | pIC50 [1] | also measured
OC[C@H]1NC[C@H](O)[C@@H](O)[C@@H]1O [DUVOGLUSTAT] | 3.69 | 
CS(=O)(=O)Cc1c([N+](=O)[O-])cn2c1CCCCC2 | < 3.52 | inhibition (Saccharomyces cerevisiae [2]): inactive
COC(=O)C(c1c([N+](=O)[O-])cn2c1CCC2)S(C)(=O)=O (stereo not drawn) | 4.32 | 
CS(=O)(=O)Cc1c([N+](=O)[O-])cn2c1CCC2 | < 3.82 | inhibition (Saccharomyces cerevisiae [3]): 46%
CS(=O)(=O)Cc1c([N+](=O)[O-])cn2c1CCCC2 | 4.14 | 

Continued, in another order:

pIC50 [1] | SMILES | also measured
3.91 | COC(=O)C(c1c([N+](=O)[O-])cn2c1CCCCC2)S(C)(=O)=O (stereo not drawn) | 
4.70 | COC(=O)C(c1c([N+](=O)[O-])cn2c1CCCC2)S(=O)(=O)Cc1ccccc1 (stereo not drawn) | 
4.54 | O=[N+]([O-])c1cn2c(c1CS(=O)(=O)Cc1ccccc1)CCCC2 | 
4.19 | COC(=O)C(c1c([N+](=O)[O-])cn2c1CCCC2)S(=O)(=O)Cc1ccc(C)cc1 (stereo not drawn) | 
5.10 | COC(=O)C(c1c([N+](=O)[O-])cn2c1CCCC2)S(C)(=O)=O (stereo not drawn) | pKi [4]: 5.12; fKi (Saccharomyces cerevisiae [5]): 3.6 µM; Vmax (Saccharomyces cerevisiae [6]): 10.7 nmol/min/mL; Ratio IC50 (Saccharomyces cerevisiae [7]): 25; inhibition (Saccharomyces cerevisiae [8]): Active; Km (Saccharomyces cerevisiae [9]): 140 µM
